{"source": "patent US9169270B2", "about": "“1-phenyl-substituted heterocyclyl derivatives and their use as prostaglandin D2 receptor modulators” (Actelion Pharmaceuticals Ltd., priority 2012, dated 2015)"}
{"target": "hCRTH2 receptor (Homo sapiens (Human), UniProt Q9Y5Y4)", "sequence (Q9Y5Y4 whole entry, the tested form may be a part)": "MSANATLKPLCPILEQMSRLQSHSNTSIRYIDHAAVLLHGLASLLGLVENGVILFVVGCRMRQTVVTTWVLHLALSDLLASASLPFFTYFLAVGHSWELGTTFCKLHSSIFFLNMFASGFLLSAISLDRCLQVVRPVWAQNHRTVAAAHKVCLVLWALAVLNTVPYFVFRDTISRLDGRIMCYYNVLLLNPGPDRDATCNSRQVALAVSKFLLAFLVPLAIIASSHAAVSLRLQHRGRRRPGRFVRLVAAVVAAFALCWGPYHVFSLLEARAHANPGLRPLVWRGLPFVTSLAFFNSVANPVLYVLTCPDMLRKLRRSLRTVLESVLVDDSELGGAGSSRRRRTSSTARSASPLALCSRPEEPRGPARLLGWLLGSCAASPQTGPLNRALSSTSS", "experiment": "hCRTH2 receptor membranes radioligand (3H-PGD2) displacement assay", "conditions": "hCRTH2 membrane fragments, Binding-Buffer with 0.1% BSA", "protocol": "Biological Assays: Preparation of hCRTH2 Receptor Membranes and Radioligand Displacement Assay:\nFirst, recombinant HEK293-hCRTH2 cells were detached from culture plates into 5 ml buffer A/plate (Buffer A: 5 mM Tris, 1 mM MgCl2-6H2O pH=7.4) using a rubber policeman. Cells were then transferred into centrifugation tubes and centrifuged for 5 min at 400 g. The cell pellet was resuspended in the same buffer and tubes were frozen at −80° C. Cells were thawed and membrane fragments were generated by homogenization using a polytron homogenizer (30 seconds). The membrane fragments were then centrifuged at 3000 g for 20 minutes and resuspended in buffer C (Buffer C: 75 mM Tris, 25 mM MgCl2, 250 mM Saccharose pH 7.4). Aliquots of membrane fragments were stored at −20° C.\nBinding assay was performed in a final assay volume of 250 μl. First, 25 μl of test compound, previously diluted in Binding-Buffer (Binding-Buffer: 50 mM Tris-Base, 100 mM NaCl, 1 mM EDTA, 0.1% BSA (protease free), 0.01% NaN3, 10 mM MnCl2, pH 7.0) was placed into each well. […] Binding assay was started by addition of 100 μl CRTH2 membrane fragments, reaching a final concentration of 20 μg/well. For non-specific binding, PGD2 was added to the reaction mixture to […] final concentration. This assay mix was incubated for 90 minutes at room temperature and then filtered through a GF/C filter 96-well plate which was pre-soaked for 3 hours in 0.5% polyethyleneimine (PEI). The filter-wells were washed three times with ice cold Binding-Buffer. Then, 40 μl of Microscint-40 (Packard) was added to each well and the retained radioactivity quantified in a Topcount (Packard).", "units": {"IC50": "nM"}}
{"smiles": "O=C(O)COc1ccc(Cl)cc1C1c2scnc2CCN1C(=O)NCc1ccccc1F", "note": "(racemic) [Example 1, (±)-{4-Chloro-2-[5-(2-fluoro-benzylcarbamoyl)-4,5,6,7-tetrahydro-thiazolo[5,4-c]pyridin-4-yl]-phenoxy}-acetic acid]", "IC50": 9.4}
{"smiles": "O=C(O)COc1ccc(Cl)cc1C1c2scnc2CCN1C(=O)NCc1cccc(F)c1", "note": "(racemic) [Example 2, (±)-{4-Chloro-2-[5-(3-fluoro-benzylcarbamoyl)-4,5,6,7-tetrahydro-thiazolo[5,4-c]pyridin-4-yl]-phenoxy}-acetic acid]", "IC50": 38.9}
{"smiles": "O=C(O)COc1ccc(Cl)cc1C1c2scnc2CCN1C(=O)NCc1ccc(F)cc1", "note": "(racemic) [Example 3, (±)-{4-Chloro-2-[5-(4-fluoro-benzylcarbamoyl)-4,5,6,7-tetrahydro-thiazolo[5,4-c]pyridin-4-yl]-phenoxy}-acetic acid]", "IC50": 124}
{"smiles": "O=C(O)COc1ccc(Cl)cc1C1c2sc(C(F)(F)F)nc2CCN1C(=O)OCc1ccccc1", "note": "(racemic) [Example 12, (±)-4-(2-Carboxymethoxy-5-chloro-phenyl)-2-trifluoromethyl-6,7-dihydro-4H-thiazolo[5,4-c]pyridine-5-carboxylic acid benzyl ester]", "IC50": 6.5}
{"smiles": "CC(C)c1nc2c(s1)C(c1cc(Cl)ccc1OCC(=O)O)N(C(=O)OCc1ccccc1)CC2", "note": "(racemic) [Example 13, (±)-4-(2-Carboxymethoxy-5-chloro-phenyl)-2-isopropyl-6,7-dihydro-4H-thiazolo[5,4-c]pyridine-5-carboxylic acid benzyl ester]", "IC50": 64.8}
{"smiles": "O=C(O)COc1ccc(Cl)cc1C1c2sc(C3CC3)nc2CCN1C(=O)OCc1ccccc1", "note": "(racemic) [Example 14, (±)-4-(2-Carboxymethoxy-5-chloro-phenyl)-2-cyclopropyl-6,7-dihydro-4H-thiazolo[5,4-c]pyridine-5-carboxylic acid benzyl ester]", "IC50": 65.7}
{"smiles": "Cc1nc2c(s1)C(c1cc(Cl)ccc1OCC(=O)O)N(C(=O)OCc1ccccc1)CC2", "note": "(racemic) [Example 15, (±)-4-(2-Carboxymethoxy-5-chloro-phenyl)-2-methyl-6,7-dihydro-4H-thiazolo[5,4-c]pyridine-5-carboxylic acid benzyl ester]", "IC50": 6.2}
{"smiles": "CCc1nc2c(s1)C(c1cc(Cl)ccc1OCC(=O)O)N(C(=O)OCc1ccccc1)CC2", "note": "(racemic) [Example 16, (±)-4-(2-Carboxymethoxy-5-chloro-phenyl)-2-ethyl-6,7-dihydro-4H-thiazolo[5,4-c]pyridine-5-carboxylic acid benzyl ester]", "IC50": 14.2}
{"smiles": "O=C(O)COc1ccc(Cl)cc1C1c2sc(Br)nc2CCN1C(=O)OCc1ccccc1", "note": "(racemic) [Example 20, (±)-2-Bromo-4-(2-carboxymethoxy-5-chloro-phenyl)-6,7-dihydro-4H-thiazolo[5,4-c]pyridine-5-carboxylic acid benzyl ester]", "IC50": 3}
{"smiles": "O=C(O)COc1ccc(Cl)cc1C1c2scnc2CCN1C(=O)CCOc1ccc(F)cc1", "note": "(racemic) [Example 21, (±)-(4-Chloro-2-{5-[3-(4-fluoro-phenoxy)-propionyl]-4,5,6,7-tetrahydro-thiazolo[5,4-c]pyridin-4-yl}-phenoxy)-acetic acid]", "IC50": 19.6}
{"smiles": "O=C(O)COc1ccc(Cl)cc1C1c2scnc2CCN1C(=O)[C@@H]1C[C@H]1c1ccccc1C(F)(F)F", "note": "(mixture of isomers) [Example 23, (±)-(4-Chloro-2-{trans-5-[2-(2-trifluoromethyl-phenyl)-cyclopropanecarbonyl]-4,5,6,7-tetrahydro-thiazolo[5,4-c]pyridin-4-yl}-phenoxy)-acetic acid]", "IC50": 6.5}
{"smiles": "O=C(O)COc1ccc(Cl)cc1C1c2scnc2CCN1C(=O)[C@@H]1C[C@H]1c1ccccc1Cl", "note": "(mixture of isomers) [Example 24, (±)-(4-Chloro-2-{trans-5-[2-(2-chloro-phenyl)-cyclopropanecarbonyl]-4,5,6,7-tetrahydro-thiazolo[5,4-c]pyridin-4-yl}-phenoxy)-acetic acid]", "IC50": 7.3}
{"smiles": "Cc1ccccc1[C@@H]1C[C@H]1C(=O)N1CCc2ncsc2C1c1cc(Cl)ccc1OCC(=O)O", "note": "(mixture of isomers) [Example 25, (±)-{4-Chloro-2-[trans-5-(2-o-tolyl-cyclopropanecarbonyl)-4,5,6,7-tetrahydro-thiazolo[5,4-c]pyridin-4-yl]-phenoxy}-acetic acid]", "IC50": 6.5}
{"smiles": "COc1ccc2[nH]cc(CCC(=O)N3CCc4ncsc4C3c3cc(Cl)ccc3OCC(=O)O)c2c1", "note": "(racemic) [Example 26, (±)-(4-Chloro-2-{5-[3-(5-methoxy-1H-indol-3-yl)-propionyl]-4,5,6,7-tetrahydro-thiazolo[5,4-c]pyridin-4-yl}-phenoxy)-acetic acid]", "IC50": 45.1}
{"smiles": "Cc1[nH]c2ccccc2c1CCC(=O)N1CCc2ncsc2C1c1cc(Cl)ccc1OCC(=O)O", "note": "(racemic) [Example 27, (±)-(4-Chloro-2-{5-[3-(2-methyl-1H-indol-3-yl)-propionyl]-4,5,6,7-tetrahydro-thiazolo[5,4-c]pyridin-4-yl}-phenoxy)-acetic acid]", "IC50": 219}
{"smiles": "Cc1ccccc1CCC(=O)N1CCc2ncsc2C1c1cc(Cl)ccc1OCC(=O)O", "note": "(racemic) [Example 29, (±)-{4-Chloro-2-[5-(3-o-tolyl-propionyl)-4,5,6,7-tetrahydro-thiazolo[5,4-c]pyridin-4-yl]-phenoxy}-acetic acid]", "IC50": 25.6}
{"smiles": "O=C(O)COc1ccc(Cl)cc1C1c2scnc2CCN1C(=O)CCCc1ccccc1F", "note": "(racemic) [Example 30, (±)-(4-Chloro-2-{5-[4-(2-fluoro-phenyl)-butyryl]-4,5,6,7-tetrahydro-thiazolo[5,4-c]pyridin-4-yl}-phenoxy)-acetic acid]", "IC50": 8.1}
{"smiles": "O=C(O)COc1ccc(Cl)cc1C1c2scnc2CCN1C(=O)COCc1ccccc1Cl", "note": "(racemic) [Example 31, (±)-(4-Chloro-2-{5-[2-(2-chloro-benzyloxy)-acetyl]-4,5,6,7-tetrahydro-thiazolo[5,4-c]pyridin-4-yl}-phenoxy)-acetic acid]", "IC50": 5}
{"smiles": "Cc1ccc(OCC(=O)N2CCc3ncsc3C2c2cc(Cl)ccc2OCC(=O)O)c(C)n1", "note": "(racemic) [Example 32, (±)-(4-Chloro-2-{5-[2-(2,6-dimethyl-pyridin-3-yloxy)-acetyl]-4,5,6,7-tetrahydro-thiazolo[5,4-c]pyridin-4-yl}-phenoxy)-acetic acid]", "IC50": 83.2}
{"smiles": "O=C(O)COc1ccc(Cl)cc1C1c2scnc2CCN1C(=O)COc1ccccc1", "note": "(racemic) [Example 34, (±)-{4-Chloro-2-[5-(2-phenoxy-acetyl)-4,5,6,7-tetrahydro-thiazolo[5,4-c]pyridin-4-yl]-phenoxy}-acetic acid]", "IC50": 87.4}
{"smiles": "C[C@@H](CC(=O)N1CCc2ncsc2C1c1cc(Cl)ccc1OCC(=O)O)c1ccccc1", "note": "(mixture of isomers) [Example 35, (±)-{4-Chloro-2-[5-((S)-3-phenyl-butyryl)-4,5,6,7-tetrahydro-thiazolo[5,4-c]pyridin-4-yl]-phenoxy}-acetic acid]", "IC50": 355}
{"smiles": "O=C(O)COc1ccc(Cl)cc1C1c2scnc2CCN1C(=O)C1Cc2ccccc2C1", "note": "(racemic) [Example 36, (±)-{4-Chloro-2-[5-(indane-2-carbonyl)-4,5,6,7-tetrahydro-thiazolo[5,4-c]pyridin-4-yl]-phenoxy}-acetic acid]", "IC50": 733}
{"smiles": "O=C(O)COc1ccc(Cl)cc1C1c2scnc2CCN1C(=O)CC1(c2ccccc2)CC1", "note": "(racemic) [Example 37, (±)-(4-Chloro-2-{5-[2-(1-phenyl-cyclopropyl)-acetyl]-4,5,6,7-tetrahydro-thiazolo[5,4-c]pyridin-4-yl}-phenoxy)-acetic acid]", "IC50": 130}
{"smiles": "C[C@H](CC(=O)N1CCc2ncsc2C1c1cc(Cl)ccc1OCC(=O)O)c1ccccc1", "note": "(mixture of isomers) [Example 38, (±)-{4-Chloro-2-[5-((R)-3-phenyl-butyryl)-4,5,6,7-tetrahydro-thiazolo[5,4-c]pyridin-4-yl]-phenoxy}-acetic acid]", "IC50": 12.2}
{"smiles": "O=C(O)COc1ccc(Cl)cc1[C@@H]1c2scnc2CCN1C(=O)C[C@H]1OCCc2ccccc21", "note": "(racemic) [Example 39, (±)-{4-Chloro-2-[5-((±)-2-isochroman-1-yl-acetyl)-4,5,6,7-tetrahydro-thiazolo[5,4-c]pyridin-4-yl]-phenoxy}-acetic acid]", "IC50": 99.1}
{"smiles": "CC(C)(C)CC(=O)N1CCc2ncsc2C1c1cc(Cl)ccc1OCC(=O)O", "note": "(racemic) [Example 40, (±)-{4-Chloro-2-[5-(3,3-dimethyl-butyryl)-4,5,6,7-tetrahydro-thiazolo[5,4-c]pyridin-4-yl]-phenoxy}-acetic acid]", "IC50": 950}
{"smiles": "O=C(O)COc1ccc(Cl)cc1C1c2scnc2CCN1C(=O)CC1CC1", "note": "(racemic) [Example 41, (±)-{4-Chloro-2-[5-(2-cyclopropyl-acetyl)-4,5,6,7-tetrahydro-thiazolo[5,4-c]pyridin-4-yl]-phenoxy}-acetic acid]", "IC50": 83.9}
{"smiles": "O=C(O)COc1ccc(Cl)cc1C1c2scnc2CCN1C(=O)Cc1n[nH]c2ccccc12", "note": "(racemic) [Example 44, (±)-{4-Chloro-2-[5-(2-1H-indazol-3-yl-acetyl)-4,5,6,7-tetrahydro-thiazolo[5,4-c]pyridin-4-yl]-phenoxy}-acetic acid]", "IC50": 48.1}
